{"source": "paper PMC8854749", "about": "“Celastrol Inhibits Canine Mammary Tumor Cells by Inducing Apoptosis via the Caspase Pathway” (Frontiers in Veterinary Science, 2022)", "assay_type_in_all_cases": "cell-based, canine", "key": {"[1]": {"tested_on": "CIPp cells", "assay": "Western blot of apoptosis- and cell cycle-related proteins", "conditions": "different concentrations, 24 h, Western blot", "experimental": "(§1) The CMT-7364 and CIPp cells were treated with different concentrations of Caspase inhibitor Z-V-F and/or celastrol for 24 h, and the cells were lysed with RIPA lysis buffer on ice. The protein was extracted according to the manufacturer's instructions, and protein concentration was determined by the BCA protein concentration assay kit. The loading amount of 20 μg protein in each group was separated by 10% SDS-PAGE, the separated protein was transferred to polyvinylidene fluoride membrane. After blocking with 5% skimmed milk for 1 h, the membrane was washed two times with 0.5% PBS-Tween 20 (PBS-T), then the membrane with the primary antibody was incubated overnight in a shaker at 4°C. Primary antibodies include β-actin (1:2,000), p65 (1:1,000), NF-κB (1:1,000), Caspase-9 (1:1,000), Caspase-3 (1:1,000), Bax (1:2,000), Bcl-2 (1:1,000), Cyclin D1 (1:1,000), p21 (1:1,000), and p27 (1:1,000). After washing 3 times with PBS-T buffer for 10 min each time, the membrane was incubated with HRP-conjugated secondary antibody at 37°C for 30 min. Secondary antibodies include anti-mouse IgG antibody (1:5,000), anti-rabbit IgG antibody (1:2,000~1:4,000). The membrane was washed 3 times with PBS-T for 10 min each time. Finally, it was detected by an enhanced chemiluminescence detection system, and the results were quantified by ImageJ."}, "[2]": {"tested_on": "CMT-7364 cells", "assay": "Western blot of apoptosis- and cell cycle-related proteins", "conditions": "different concentrations, 24 h, Western blot", "experimental": "as §1"}, "[3]": {"tested_on": "MDCK cells", "assay": "Cell Counting Kit-8 (CCK-8) cell viability, non-tumor cell line", "conditions": "for IC50: Canis lupus familiaris, MDCK cells (non-tumor canine cell line), CCK-8", "experimental": "CMT-7364, CIPp, and MDCK cells were plated in a 96-well plate with 2,000 cells per well and maintained in 5% CO2 at 37°C for 24 h until the cells adhered to the bottom. Then the medium was removed, the new media containing different concentrations (0, 0.1, 0.4, 0.6, 0.8, 1.2, and 1.6 μM) of celastrol were added, and incubated for 12, 24, 36, and 48 h. Ten microliters of the cell counting kit-8 (CCK-8) were added to each well for 1 h incubation. At each time point, the OD value was read by a microplate reader at 450 nm wavelength, and the cell viability with each drug concentration at different time points was calculated: cell relative viability=[(OD 450celastrol-OD 450blank) / (OD 450control-OD 450blank)] × 100%."}, "[4]": {"tested_on": "CIPp cells", "assay": "Cell invasion (transwell, Matrigel) assay", "experimental": "(§2) The transwell chambers were placed in a 24-well cell culture plate, each well was plated with 100 μl serum-free medium containing 5% Matrigel on the upper chamber, and placed in incubator at 37°C for 2 h. The excess media were pipetted out of the upper chamber, 100 μl of cell suspension with or without celastrol treatment (0.3 μM or 0.9 μM) were added at a concentration of 1 × 10^4 cells/ml in each upper chamber; the lower chambers were filled with 600 μl medium containing 10% serum for each well. […] PBS was used to rinse the chambers for 2 min with 3 times repeated, then the cells were fixed with methanol for 10 min, followed by distilled water rinsed for 2 min with 3 times repeated. Finally, cells were dyed with 0.1% crystal violet at room temperature for 20 min, and washed with distilled water until the water is colorless. Images of cell invasion were taken with an inverted microscope, and the stained cells represented the invasion cells were counted by a cell counter to analyze the cell invasion rate. The relative invasion rate = (cell number celastrol /cell number control) × 100%."}, "[5]": {"tested_on": "CMT-7364 cells", "assay": "Cell invasion (transwell, Matrigel) assay", "experimental": "as §2"}, "[6]": {"tested_on": "CIPp cells", "assay": "Annexin V-FITC/PI apoptosis detection, fluorescence microscope", "conditions": "0.3 μM or 0.9 μM, 24 h, vs control group", "experimental": "(§3) CMT-7364 and CIPp cells were seeded in a 6-well plate at a concentration of 1 × 10^5 cells/well, treated with different concentrations of celastrol (0, 0.3, 0.9 μM) for 24 h. Then cells were double-stained by Annexin V-FITC/PI, incubating at room temperature for 20 min in the dark, followed by observing with a fluorescence microscope. Green fluorescence represents Annexin V-FITC staining positive, and red fluorescence represents PI staining positive. Apoptotic cells were single-stained by green fluorescence, late apoptotic or necrotic cells were double-stained by green and red fluorescence, and normal cells were not stained by fluorescence. Finally, pictures of the cells were taken by a fluorescence microscope."}, "[7]": {"tested_on": "CMT-7364 cells", "assay": "Annexin V-FITC/PI apoptosis detection, fluorescence microscope", "conditions": "0.3 μM or 0.9 μM, 24 h, vs control group", "experimental": "as §3"}, "[8]": {"tested_on": "CIPp cells", "assay": "Annexin V-FITC/PI apoptosis flow cytometry", "conditions": "0.3 and 0.9 μM, 24 h, vs control group", "experimental": "(§4) CMT-7364 and CIPp cells were seeded in a 6-well plate at a concentration of 1 × 10^5 cells/well, treated with different concentrations of celastrol (0, 0.3, and 0.9 μM) for 24 h. The cell culture medium was collected, the cells were washed once with PBS, digested with 0.25% trypsin, the cells were resuspended with the collected cell culture medium and kept after centrifugation. The cells were stained with Annexin V-FITC Apoptosis Detection Kit, and Guava easy Cyte5 (Merck millipore, United States) was used to detect the stained cells, and the data were analyzed by using Flow Jo software (version 10.0.7, United States)."}, "[9]": {"tested_on": "CMT-7364 cells", "assay": "Annexin V-FITC/PI apoptosis flow cytometry", "conditions": "0.3 and 0.9 μM, 24 h, vs control group", "experimental": "as §4"}, "[10]": {"conditions": "0.9 μM, 24 h, relative to control"}, "[11]": {"conditions": "0.3 and 0.9 μM, vs control group"}}, "data": [{"molecule": "CC1=C(O)C(=O)C=C2C1=CC=C1[C@@]2(C)CC[C@@]2(C)[C@@H]3C[C@](C)(C(=O)O)CC[C@]3(C)CC[C@]12C", "note": "[celastrol, Celastrol]", "values": [{"measurement": "protein expression level of Bax", "setting": "[1]", "value": "significantly up-regulated"}, {"measurement": "protein expression level of Bcl-2", "setting": "[1]", "value": "significantly down-regulated"}, {"measurement": "protein expression level of Cleaved-Caspase-3", "setting": "[1]", "value": "significantly up-regulated"}, {"measurement": "protein expression level of Cleaved-Caspase-9", "setting": "[1]", "value": "significantly up-regulated"}, {"measurement": "protein expression level of Cyclin D1", "setting": "[1]", "value": "down-regulated"}, {"measurement": "protein expression level of NF-kB", "setting": "[1]", "value": "significantly down-regulated"}, {"measurement": "protein expression level of p21", "setting": "[1]", "value": "up-regulated"}, {"measurement": "protein expression level of p27", "setting": "[1]", "value": "up-regulated"}, {"measurement": "protein expression level of phosphorylated p65", "setting": "[1]", "value": "significantly down-regulated"}, {"measurement": "protein expression level of Bax", "setting": "[2]", "value": "significantly up-regulated"}, {"measurement": "protein expression level of Bcl-2", "setting": "[2]", "value": "significantly down-regulated"}, {"measurement": "protein expression level of Cleaved-Caspase-3", "setting": "[2]", "value": "significantly up-regulated"}, {"measurement": "protein expression level of Cleaved-Caspase-9", "setting": "[2]", "value": "significantly up-regulated"}, {"measurement": "protein expression level of Cyclin D1", "setting": "[2]", "value": "down-regulated"}, {"measurement": "protein expression level of NF-kB", "setting": "[2]", "value": "significantly down-regulated"}, {"measurement": "protein expression level of p21", "setting": "[2]", "value": "up-regulated"}, {"measurement": "protein expression level of p27", "setting": "[2]", "value": "up-regulated"}, {"measurement": "protein expression level of phosphorylated p65", "setting": "[2]", "value": "significantly down-regulated"}, {"measurement": "IC50", "setting": "[3]; 24 h", "value": 1810, "unit": "nM"}, {"measurement": "IC50", "setting": "[3]; 48 h", "value": 1860, "unit": "nM"}, {"measurement": "proliferation", "setting": "[3]; MDCK cells, concentration <1.2 μM", "value": "did not significantly inhibit"}, {"measurement": "invasion rate", "setting": "[4]; [10]", "value": "32.00 ± 1.73", "unit": "%"}, {"measurement": "invasion ability", "setting": "[4]; [11]", "value": "inhibited the invasion ability of CMT-7364 and CIPp cells in a dose-dependent manner"}, {"measurement": "invasion rate", "setting": "[5]; [10]", "value": "28.00 ± 1.53", "unit": "%"}, {"measurement": "invasion ability", "setting": "[5]; [11]", "value": "inhibited the invasion ability of CMT-7364 and CIPp cells in a dose-dependent manner"}, {"measurement": "green fluorescence (Annexin V-FITC, apoptotic cells)", "setting": "[6]", "value": "increased"}, {"measurement": "green fluorescence (Annexin V-FITC, apoptotic cells)", "setting": "[7]", "value": "increased"}, {"measurement": "percentages of early and late apoptotic cells", "setting": "[8]", "value": "increased in a dose-dependent manner"}, {"measurement": "percentages of early and late apoptotic cells", "setting": "[9]", "value": "increased in a dose-dependent manner"}]}]}
